2 molecules from US20040102522A1, “Dosage form of sodium ibuprofen” (priority 2002, published 2004) can be followed below.

The data set is described as follows: Water uptake (hygroscopicity) of sodium ibuprofen forms. It counts as physicochemical.

In the case of `CC(C)Cc1ccc(C(C)C(=O)O)cc1.[Na]` (centres unmarked) [water free sodium ibuprofen, sodium ibuprofen], the water taken up entry (relative humidity 25% RH, spontaneous) is listed as “up to 13.6 % by weight”.

In the case of `CC(C)Cc1ccc(C(C)C(=O)O)cc1.O.[Na]` (centres unmarked) [sodium ibuprofen hydrate], the “additional water uptake on open storage” value (open storage over 6 months at 40° C. and 75% RH, water content 13-14% by weight) is “did not take up additional water”.
